13 compounds from article PMC9820444, “Design and Synthesis of Acridine-Triazole and Acridine-Thiadiazole Derivatives and Their Inhibitory Effect against Cancer Cells” (International Journal of Molecular Sciences, 2022) can be followed below.

Data set [1] concerns human foreskin fibroblasts (HFF). The data set can be described thus: MTT antiproliferative assay, HFF. The data set is classed as cell-based. The conditions noted are these: read-out: Effect against cell viability (IC50), HFF. On the procedure:
(§1) All newly synthesized acridinyl derivatives (4–6) were screened for their anticancer activities in comparison to the reference compounds, 5-FU and cis-platinum. Compounds 4–6 were tested for their in vitro antitumor activities against HFF, MGC-803, BEL-7404, NCI-H460, and T24 tumor cell lines, and human normal liver cells (LO2), and the results are shown in Table 1. Most of the compounds had strong selective potency against MGC-803 and T24 cancer cells. […] In the T24 cell line assay, many compounds, especially the series of compound 4, had significant activity against T24. This implies that there is a significant increase in potency after the introduction of the aroyl thiourea group. […] To our delight, most 1,2,4-triazolethiones (5) and 1,2,4-thiadiazoles (6) have low toxicity to LO2 compared with the positive control.
(§2) Test samples, including compounds 4–6 and commercial classical anticancer drugs (5-FU and cis-platinum), were screened for their anti-cancer activity against HFF human foreskin fibroblast cells, MGC-803 human gastric cancer cells, BEL-7404 human hepatocellular carcinoma cells, NCI-H460 human large cell carcinoma cells, and T24 human bladder carcinoma cells using the 3-(4,5-dimethylthiazol-2-yl)-2,5-diphenyltetrazoliumbromide (MTT) assay method cited in the literature. The initial concentration of all the test samples was 100 μg/mL, which was serially diluted in complete medium with ten-fold dilutions to give six concentrations per compound. Their cytotoxicity was determined in 96-well flat bottomed microtiter plates. All the test samples were tested in triplicate. The results were expressed as the drug concentration that inhibited cell growth by 50% as compared to the controls (IC50). The IC50 values were calculated from regression lines obtained from the percent cell growth inhibition plotted as a function of the logarithm of the dose.
Background: Formazan colour is commonly taken as a measure of viable cells.

The subject of data set [2] is bladder cancer cells (T24). Description: MTT antiproliferative assay, T24. The conditions noted are these: read-out: Effect against cell viability (IC50), T24. In kind it is cell-based, human. On the procedure:
as §1, §2

The test system of data set [3] is large cell lung cancer cells (NCI-H460). The data set can be described thus: MTT antiproliferative assay, NCI-H460. Conditions: read-out: Effect against cell viability (IC50), NCI-H460. The data set is classed as cell-based, human. On the procedure:
as §1, §2

Data set [4] concerns zebrafish embryos. The arrangement: mortality rate of zebrafish embryos: dose or concentration left out as unconfirmed. The conditions noted are these: for MAR (malformation rate) / MOR (mortality rate): zebrafish embryos 72 hpf; for total mortality and malformation rate: zebrafish embryos. The procedure: In this experiment, 2% DMSO was used to dissolve the target products, and the abnormal rate (MAR) and mortality rate (MOR) of zebrafish embryos (72 hpf) were used for statistics.
The zebrafish embryos were collected at 6 hpf and randomly divided into naive control (embryos maintained in distilled water), vehicle control (embryos treated with 2% DMSO), and drug groups. Stock solutions of all drugs were prepared in 2% DMSO as a solubilizing agent and diluted to three concentrations (0.5 mg/mL, 1 mg/mL, and 2 mg/mL). Each group had 20 embryos per test concentration. […] Each compound was evaluated in three independent biological experiments.

For data set [5], the system named is human normal liver cells (LO2). Description: Cytotoxicity against normal liver cells LO2. The data set is classed as cell-based. Conditions: MTT, read-out: Effect against cell viability (IC50), LO2. On the procedure:
as §1, §2

Data set [6] relates to hepatocellular carcinoma bel-7404 (BEL-7404). The data set can be described thus: MTT antiproliferative assay, BEL-7404. The conditions noted are these: read-out: Effect against cell viability (IC50), BEL-7404. In kind it is cell-based, human. On the procedure: as §1, §2
Data set [7] relates to human gastric cancer cells-803 (MGC-803). The data set can be described thus: MTT antiproliferative assay, MGC-803. In kind it is cell-based. The conditions noted are these: read-out: Effect against cell viability (IC50), MGC-803. On the procedure: as §1, §2

Molecules are shown by their SMILES. Like-named read-outs stand apart in the source and are kept apart here. Marks after values point to notes of the source that are not given here.

Take `COc1ccc2nc3ccccc3c(NC(=S)NNC(=O)c3ccccc3)c2c1` [4b, 1-2′-methoxyl acridinyl-3-benzoyl thiosemicarbazides]: the IC50 in data set [1] was found to be 72.6 ± 3.57 µM; in data set [2] it was 29.8 ± 2.85 µM; in data set [3] it was 42.3 ± 2.15 µM; in data set [5], 34.4 ± 2.05 µM; in data set [6], 25.8 ± 2.83 µM; in data set [7] (MTT) it was 14.5 ± 2.06 µM. In addition, the “MAR (malformation rate)” value worked out at 70% ^a in data set [4] (1 mg/mL), 70% ^a in data set [4] (1.5 mg/mL) and 55% ^a in data set [4] (2 mg/mL). Besides, the “MOR (mortality rate)” value in data set [4] (1 mg/mL) was found to be 15% ^a; in data set [4] (1.5 mg/mL) it was 15% ^a; in data set [4] (2 mg/mL), 40% ^a. For the same compound, the “total mortality and malformation rate” value in data set [4] (2.0 mg.L^−1) stood at 100%.
For the compound `COc1ccc(C(=O)NNC(=S)Nc2c3ccccc3nc3ccc(OC)cc23)cc1` [4c, 1-2′-methoxyl acridinyl-3-4′-methoxy benzoyl thiosemicarbazides], the IC50 in data set [1] was found to be 63.7 ± 2.59 µM; in data set [2] it was 11.2 ± 2.51 µM; in data set [3] it was 52.4 ± 3.67 µM; in data set [5], 19.4 ± 1.69 µM; in data set [6], 13.3 ± 1.37 µM; in data set [7] (MTT), 21 ± 1.55 µM. Further, the “MAR (malformation rate)” value in data set [4] (1 mg/mL) worked out at 50% ^a; in data set [4] (1.5 mg/mL), 60% ^a; in data set [4] (2 mg/mL), 50% ^a. The figures for the “MOR (mortality rate)” value in data set [4] (1 mg/mL), in data set [4] (1.5 mg/mL) and in data set [4] (2 mg/mL) were 45% ^a, 25% ^a and 35% ^a, respectively.
With `COc1ccc2nc3ccccc3c(NC(=S)NNC(=O)c3ccc([N+](=O)[O-])cc3)c2c1` [4d, 1-2’-methoxyl acridinyl-3-4′-nitro benzoyl thiosemicarbazides], the IC50 turned out to be 65.3 ± 3.82 µM in data set [1]; 13 ± 1.64 µM in data set [2]; 40.5 ± 4.52 µM in data set [3]; 25.1 ± 1.33 µM in data set [5]; 43.9 ± 2.59 µM in data set [6]; 35 ± 3.57 µM in data set [7] (MTT).
Take `Cc1ccc2[nH]c3ccccc3c(=NC(=S)NNC(=O)c3ccncc3)c2c1` [4f, 1-2′-methyl acridinyl-3-4′-pyridinamide thiourea]: the IC50 in data set [1] was 55.2 ± 1.36 µM; in data set [2], 9.66 ± 1.54 µM; in data set [3] it was 53.7 ± 3.04 µM; in data set [5], 10.1 ± 0.96 µM; in data set [6] it was 34.4 ± 2.24 µM; in data set [7] (MTT), 11.2 ± 0.96 µM. Further, the “MAR (malformation rate)” value is 60% ^b in data set [4] (1 mg/mL), 80% ^b in data set [4] (1.5 mg/mL) and 15% ^b in data set [4] (2 mg/mL). For the same compound, the “MOR (mortality rate)” value turned out to be 10% ^b in data set [4] (1 mg/mL), 20% ^b in data set [4] (1.5 mg/mL) and 85% ^b in data set [4] (2 mg/mL). Also, the “total mortality and malformation rate” value in data set [4] (2.0 mg.L^−1) was 100%.
As to `Cc1ccc2nc3ccccc3c(NC(=S)NNC(=O)c3ccccc3)c2c1` [4g, 1-2′-methyl acridinyl-3-benzoyl thiosemicarbazides], the IC50 in data set [1] is 70.1 ± 3.97 µM; in data set [2], 25.8 ± 1.51 µM; in data set [3] it was 39 ± 2.05 µM; in data set [5], 14.3 ± 1.52 µM; in data set [6], 20.2 ± 4.13 µM; in data set [7] (MTT), 13.5 ± 1.59 µM.
With `Cc1ccc2nc3ccccc3c(NC(=S)NNC(=O)c3ccc([N+](=O)[O-])cc3)c2c1` [4i, 1-2′-methyl acridinyl-3-4’-nitro benzoyl thiosemicarbazides], the IC50 in data set [1] was 60.7 ± 2.31 µM; in data set [2], 9.89 ± 1.45 µM; in data set [3], 60.4 ± 2.95 µM; in data set [5] it was 11.8 ± 1.38 µM; in data set [6] it was 23.3 ± 1.33 µM; in data set [7] (MTT) it was 22.3 ± 1.35 µM.
Regarding `Cc1ccc2nc3ccccc3c(NC(=S)NNC(=O)c3ccc(Cl)cc3)c2c1` [4j, 1-2′-methyl acridinyl-3-4′-chloro benzoyl thiosemicarbazides], the IC50 in data set [1] is 61.5 ± 1.85 µM; in data set [2], 19.9 ± 1.32 µM; in data set [3], 32.2 ± 2.36 µM; in data set [5] it was 20.5 ± 1.39 µM; in data set [6], 24.4 ± 3.53 µM; in data set [7] (MTT) it was 16.4 ± 1.56 µM.
Consider `O=c1[nH]cc(F)c(=O)[nH]1` [5-FU, 5-fluorouracil, reference compound], for which the IC50 in data set [1] (Homo sapiens, Fibroblast) stood at 25.4 ± 1.27 µM; in data set [2] (Homo sapiens), 32 ± 1.23 µM; in data set [3] (Homo sapiens), 44 ± 0.54 µM; in data set [5] (Homo sapiens), 40.1 ± 1.65 µM; in data set [6] (Homo sapiens), 34.5 ± 1.18 µM; in data set [7] (Homo sapiens, MGC-803, MTT), 30.4 ± 2.87 µM.
For orientation: melting point means the temperature, or range, at which the solid turns liquid. `Cc1ccc2nc3ccccc3c(-n3c(-c4ccccc4)n[nH]c3=S)c2c1` [5g, 4-(2-methylacridin-9-yl)-5-phenyl-2,4-dihydro-3H-1,2,4-triazole-3-thione]: the melting point lay in the range of 292 to 293 °C. Also, in data set [1] (Homo sapiens, Fibroblast), the IC50 is 68.3 ± 2.74 µM. Moreover, the IC50 in data set [2] (Homo sapiens) was 19.4 ± 2.17 µM. For the same compound, in data set [3] (Homo sapiens), the IC50 turned out to be 30.6 ± 2.21 µM. The IC50 in data set [5] (Homo sapiens) came to 44.6 ± 2.35 µM. Moreover, the IC50 in data set [6] (Homo sapiens) was found to be 20.5 ± 1.13 µM.
Take `COC1=CC2C(=Nc3nnc(-c4ccncc4)s3)c3ccccc3NC2C=C1` (centres unmarked) [6a, 7-methoxy-N-(5-(pyridin-4-yl)-1,3,4-thiadiazol-2-yl)-10,10a-dihydroacridin-9(8aH)-imine]: the IC50 in data set [1] (Homo sapiens, Fibroblast) is 68.8 ± 1.87 µM; in data set [2] (Homo sapiens), 10.2 ± 0.96 µM; in data set [3] (Homo sapiens) it was 25.3 ± 3.57 µM; in data set [5] (Homo sapiens), 40.2 ± 2.74 µM; in data set [6] (Homo sapiens) it was 19.2 ± 1.3 µM; in data set [7] (Homo sapiens, MGC-803, MTT), 14.3 ± 1.29 µM. The “MAR (malformation rate)” value in data set [4] (1 mg/mL) came out at 15% ^b; in data set [4] (1.5 mg/mL) it was 95% ^b; in data set [4] (2 mg/mL), 90% ^b. Also, the “MOR (mortality rate)” value in data set [4] (1 mg/mL) came out at 0%; in data set [4] (1.5 mg/mL), 0%; in data set [4] (2 mg/mL), 5% ^b.
With `COC1=CC2C(=Nc3nnc(-c4ccc(Cl)cc4)s3)c3ccccc3NC2C=C1` (centres unmarked) [6e, 7-methoxy-N-(5-(4-chlorophenyl)-1,3,4-thiadiazol-2-yl)-10,10a-dihydroacridin-9(8aH)-imine], the IC50 came out at 44.7 ± 1.44 µM in data set [1] (Homo sapiens, Fibroblast); 14.9 ± 1.3 µM in data set [2] (Homo sapiens); 27.9 ± 3.97 µM in data set [3] (Homo sapiens); 33.6 ± 2.01 µM in data set [5] (Homo sapiens); 21.3 ± 2.81 µM in data set [6] (Homo sapiens); 9.95 ± 1.03 µM in data set [7] (Homo sapiens, MGC-803, MTT). Besides, the IC50 in data set [7] (MTT) was 9.01 ± 1.32 µM. The entries for the “MAR (malformation rate)” value in data set [4] (1 mg/mL), in data set [4] (1.5 mg/mL) and in data set [4] (2 mg/mL) were 10% ^c, 70% ^c and 35% ^c, respectively. The “MOR (mortality rate)” value is 10% ^c in data set [4] (1 mg/mL), 30% ^c in data set [4] (1.5 mg/mL) and 65% ^c in data set [4] (2 mg/mL).
Consider `CC1=CC2C(=Nc3nnc(-c4ccc([N+](=O)[O-])cc4)s3)c3ccccc3NC2C=C1` (centres unmarked) [6i, 7-methyl-N-(5-(4-nitrophenyl)-1,3,4-thiadiazol-2-yl)-10,10a-dihydroacridin-9(8aH)-imine], for which the IC50 in data set [1] (Homo sapiens, Fibroblast) was 92 ± 2.99 µM; in data set [2] (Homo sapiens) it was 29.9 ± 2.45 µM; in data set [3] (Homo sapiens), 36.4 ± 3.15 µM; in data set [5] (Homo sapiens), above 100 µM; in data set [6] (Homo sapiens), 43.7 ± 2.36 µM; in data set [7] (Homo sapiens, MGC-803, MTT) it was 22.9 ± 1.85 µM. Besides, the “mortality rate of zebrafish embryos” value in data set [4] is reported as 0%. The “malformation rate of zebrafish embryos” value in data set [4] (2.0 mg.L^−1) turned out to be 25%. For the same compound, the “MAR (malformation rate)” value in data set [4] (1 mg/mL) was 0%; in data set [4] (1.5 mg/mL), 10% ^b; in data set [4] (2 mg/mL), 25% ^c. In addition, the “MOR (mortality rate)” value in data set [4] (1 mg/mL), in data set [4] (1.5 mg/mL) and in data set [4] (2 mg/mL) was 0% in each case.
`N.N.[Cl][Pt][Cl]` [cis-platinum, reference compound]: the IC50 in data set [1] is 10.8 ± 0.34 µM; in data set [2], 9.13 ± 1.54 µM; in data set [3], 7.13 ± 1.24 µM; in data set [5] it was 21.4 ± 1.25 µM; in data set [6] it was 10 ± 0.52 µM; in data set [7] (MTT), 16 ± 1.53 µM.
